Where a name gives a salt, the structure may show the parent alone.
Experiments:
[1] = Acute toxicity in mice; conditions: mouse, in vivo, ip; intraperitoneal, male I.C.R. mice, survivals at one week
Description: Test: Acute Toxicity in Mice
A normal saline containing each of the test compound mentioned below and 0.5% carboxymethylcellulose was given intraperitoneally to male I.C.R. (Institute of Cancer Research) strain mice aged 5 weeks, weighing 33-35 g. LD50 values were calculated from the survivals of mice at one week after the administration of the test compound.

[2] = test system: P.C.A. reaction in S.D. strain rats; test: Inhibition test of P.C.A. (Passive Cutaneous Anaphylaxis) reaction in S.D. strain rats, rat reaginic antiserum against egg albumin; assay type: in vivo
Description: (§1) (a) Rat reaginic antiserum against egg albumin
(§2) A solution of egg albumin (2 mg) in B. pertussis-diphtheria-tetanus mixed vaccine (1 ml.) (made by Takeda Chemical Industries Ltd.) was mixed with an equal volume of incomplete adjuvant (made by Difco Laboratories) to give an emulsion. The emulsion was given subcutaneously in a single dose of 1 ml. divided equally (0.25 ml.) to the four foot pads of male S.D. (Sprague-Dawley) strain rats aged 8 weeks, each weighing about 300 g.
(§3) Five days after the administration, a solution of egg albumin (0.5 mg.) in B. pertussis-diphtheria-tetanus mixed vaccine (0.5 ml.) was further given intramuscularly in a single dose of 0.5 ml. divided equally (0.25 ml.) to 2 places of thigh of the same rats.
(§4) Three days after the second administration, blood samples were collected from femoral artery of the rats and allowed to stand at ambient temperature for 5 hours. The separated supernatant was centrifuged at 4° C. (10,000 r.p.m.× 1 hour). The antisera thus obtained were stored at -80° C. prior to use.
(§5) (2) Inhibition test of P.C.A. (Passive Cutaneous Anaphylaxis) reaction
(§6) (a) Inhibitory effect on P.C.A. reaction in S.D. strain rats
(§7) Fifteen male S.D. strain rats aged 8 weeks, each weighing about 270 g were divided equally into 3 groups.
(§8) A rat reaginic antiserum (0.07 ml.) as prepared by the above (1)-(a) was given intracutaneously to the depilated back of each rat of Group I and Group II. On the other hand, a rat normal serum (0.07 ml.) was given intracutaneously to the depilated back of each rat of Group III, respectively.
(§9) Thirty hours after the administration, a normal saline (0.5 ml.) containing egg albumin (7.5 mg.) and Evans blue (2.5 mg.) was intravenously given to each rat of Groups I-III in order to bring about P.C.A., respectively.
(§10) Beforehand, 3 hours, 1 hour and […] before the intravenous administration to bring about P.C.A., a normal saline (1 ml.) containing the prescribed amount of N-methyllaurotetanine hydrochloride and carboxymethylcellulose (0.5 %) was given orally, intraperitoneally or intravenously to each rat of Group I and a normal saline (1 ml.) containing only carboxymethylcellulose (0.5% was also given orally, intraperitoneally or intravenously to each rat of Group II.
(§11) Thirty minutes after challenge with antigen, the animals were sacrificed and then skinned. To each of the sensitized spots punched, was added a mixture (7 ml.) of acetone and 2% aqueous sodium alkylbenzenesulfonate solution (4:1) and then the mixture was homogenized. The homogenate was shaken at ambient temperature for 2 hours and filtered. Optical density at 620 nm of the filtrate was determined and from the value of the optical density, inhibitory effect of P.C.A. reaction was calculated by using the following equation. [formula] A: Optical Density Value of Group II B: Optical Density Value of Group I
(§12) C: Optical Density Value of Group III

[3] = test system: P.C.A. reaction in S.D. strain rats; test: Inhibition test of P.C.A. reaction in S.D. strain rats, rat hyperimmune antiserum against egg albumin; assay type: in vivo
Description: (§13) (b) Rat hyperimmune antiserum against egg albumin
(§14) A solution of egg albumin (20 mg.) in normal saline (1 ml.) was mixed with complete adjuvant (1 ml.) (made by Difco Laboratories) to given an emulsion. The emulsion was subcutaneously given in a single dose of 1 ml. divided equally (0.25 ml.) to the four pads of male S.D. strain rats aged 6 weeks, each weighing about 200 g. (The first immunization).
(§15) One week after the administration, an emulsion which was prepared by mixing a solution of egg albumin (10 mg.) in normal saline (1 ml.) with complete adjuvant (1 ml.) was further given subcutaneously (at 3 places) and intramuscularly (at 1 place) in a single dose of 1 ml. divided equally (0.25 ml.) to thigh of the same rats. (The second immunization).
(§16) Three weeks after the second administration, a solution of egg albumin (1 mg.) in normal saline (1 ml.) was further given intracutaneously in a single dose of 0.3 ml. divided equally (0.1 ml.) to 3 places of the same rats. (The third immunization).
(§17) One week after the third administration, blood samples were collected from rats and treated in substantially the same manner as described in the above item (a). The antisera thus obtained were stored at -80° C. prior to use.
as §5, §6, §7, §8, §9, §10, §11, §12
(§18) Further, an inhibition test on P.C.A. reaction using the rat hyperimmuneantiserum against egg albumin was carried out in substantially the same manner as described in the above, excepting that the intravenous administration to bring about P.C.A. was carried out at 5.5 hours after the administration of the serum and antiserum. And inhibitory effect on the P.C.A. reaction was also calculated in substantially the same manner as described in the above.

[4] = test system: P.C.A. reaction in Donryu strain rats; test: Inhibition of P.C.A. reaction in Donryu strain rats, rat reaginic antiserum against egg albumin; assay type: in vivo; conditions: Donryu rat (Table 2-I)
Description: as §1, §2, §3, §4
(§19) (b) Inhibitory effect on P.C.A. reaction in Donryu strain rat
(§20) The following tests were carried out in substantially the same manner as described in the above item (2)-(a).
(§21) (i) Test compound: N:methyllaurotetanine hydrochloride
(§22) Test animal: Male Donryu strain rats aged 8 weeks, weighing about 130 g.
(§23) Challenge: A normal saline (0.3 ml.) containing egg albumin (4.5 mg.) and Evans blue (1.5 mg.).
(§24) (ii) Test commpound: glaucine or boldine
(§25) Test animal: Male Donryu strain rats aged 8 weeks, weighing 140-150 g.
(§26) Challenge: the same as the above item (b)-(i).

[5] = test system: P.C.A. reaction in Donryu strain rats; test: Inhibition of P.C.A. reaction in Donryu strain rats, rat hyperimmune antiserum against egg albumin; assay type: in vivo; conditions: Donryu rat (Table 2-I)
Description: as §13, §14, §15, §16, §17, §18, §19, §20, §21, §22, §23, §24, §25, §26

COc1cc2c(cc1O)CC1c3c(cc(OC)c(OC)c3-2)CCN1C (centres unmarked) [N-Methyllaurotetanine hydrochloride]
LD50 at 168 h [1]: 91.7 mg/kg
Inhibitory effect on P.C.A. reaction ([2]; intraperitoneal, 4 mg/kg): 6%
Inhibitory effect on P.C.A. reaction ([2]; intraperitoneal, 13 mg/kg): 80%
Inhibitory effect on P.C.A. reaction ([2]; intraperitoneal, 40 mg/kg): 85%
ED50 ([2]; intravenous): 2.5 mg/kg
Inhibitory effect on P.C.A. reaction ([2]; intravenous, 1 mg/kg): 24%
Inhibitory effect on P.C.A. reaction ([2]; intravenous, 3 mg/kg): 57%
Inhibitory effect on P.C.A. reaction ([2]; intravenous, 9 mg/kg): 85%
ED50 ([2]; ip, intraperitoneal): 4.8 mg/kg
ED50 ([2]; oral): 100 mg/kg
Inhibitory effect on P.C.A. reaction ([2]; oral, 20 mg/kg): 16%
Inhibitory effect on P.C.A. reaction ([2]; oral, 66 mg/kg): 35%
Inhibitory effect on P.C.A. reaction ([2]; oral, 200 mg/kg): 85%
Inhibitory effect on P.C.A. reaction ([3]; intraperitoneal, 4 mg/kg): 20%
Inhibitory effect on P.C.A. reaction ([3]; intraperitoneal, 13 mg/kg): 60%
Inhibitory effect on P.C.A. reaction ([3]; intraperitoneal, 40 mg/kg): 72%
ED50 ([3]; intravenous): 4 mg/kg
Inhibitory effect on P.C.A. reaction ([3]; intravenous, 1 mg/kg): 23%
Inhibitory effect on P.C.A. reaction ([3]; intravenous, 3 mg/kg): 46%
Inhibitory effect on P.C.A. reaction ([3]; intravenous, 9 mg/kg): 65%
ED50 ([3]; ip, intraperitoneal): 11 mg/kg
ED50 ([3]; oral): 110 mg/kg
Inhibitory effect on P.C.A. reaction ([3]; oral, 20 mg/kg): 42%
Inhibitory effect on P.C.A. reaction ([3]; oral, 66 mg/kg): 33%
Inhibitory effect on P.C.A. reaction ([3]; oral, 200 mg/kg): 81%
Inhibitory effect on P.C.A. reaction ([4]; intraperitoneal, 4 mg/kg): 30%
Inhibitory effect on P.C.A. reaction ([4]; intraperitoneal, 13 mg/kg): 60%
Inhibitory effect on P.C.A. reaction ([4]; intraperitoneal, 40 mg/kg): 70%
Inhibitory effect on P.C.A. reaction ([4]; intravenous, 6.7 mg/kg): 70%
Inhibitory effect on P.C.A. reaction ([4]; intravenous, 20 mg/kg): 100%
Inhibitory effect on P.C.A. reaction ([4]; oral, 20 mg/kg): 40%
Inhibitory effect on P.C.A. reaction ([4]; oral, 66 mg/kg): 70%
Inhibitory effect on P.C.A. reaction ([4]; oral, 200 mg/kg): 90%
Inhibitory effect on P.C.A. reaction ([5]; intraperitoneal, 4 mg/kg): 10%
Inhibitory effect on P.C.A. reaction ([5]; intraperitoneal, 13 mg/kg): 55%
Inhibitory effect on P.C.A. reaction ([5]; intraperitoneal, 40 mg/kg): 50%
Inhibitory effect on P.C.A. reaction ([5]; intravenous, 6.7 mg/kg): 50%
Inhibitory effect on P.C.A. reaction ([5]; intravenous, 20 mg/kg): 80%
Inhibitory effect on P.C.A. reaction ([5]; oral, 20 mg/kg): 30%
Inhibitory effect on P.C.A. reaction ([5]; oral, 66 mg/kg): 40%
Inhibitory effect on P.C.A. reaction ([5]; oral, 200 mg/kg): 65%

From patent US4185119A, “Antiallergic methods” (priority 1977, dated 1980)
